Test results published in patent US20250381168A1, “VLA4 INHIBITORS AND USES THEREOF” (Washington University, priority 2022, published 2025).
Entries after “also recorded” stand apart in the source; their conditions may differ. Where two headings read alike, the source gives them in different places.

Assays:
integrin a4b7 = integrin a4b7 (Homo sapiens (Human), UniProt P13612+P26010); experiment: a4b7 solid phase receptor assay (SPRA); conditions: recombinant human a4b7 binding to plate-coated human VCAM1 (TABLE 4)
Protocol: Wells were washed 3 times with TBS+ and blocking buffer (TBS+ with 1% bovine serum albumin), the plate was incubated for 1 hr at 37° C., and then washed 3× with TBS+ buffer. Recombinant human a4b7 (R & D Systems) was diluted to 1 μg/ml in TBS+/0.1% bovine serum albumin. Test compounds were diluted into the integrin solution and added to the washed ligand-coated plate according to a standard template with each sample repeated in triplicate. After incubation for 2 hr at room temperature, the plate was washed 3× with 150 μl of TBS+ buffer. To each well, biotinylated anti-A4 antibody (R & D Systems) at 1 μg/ml in TBS+/0.1% BSA was added and the plate covered and incubated for 1 hr at room temperature. After washing the plate 3× with TBS+ buffer, streptavidin-conjugated horseradish peroxidase (R & D Systems) diluted in TBS+ blocking buffer was added to the wells and the plate incubated for 20 min at room temperature. The plate was washed 3× with TBS+ buffer followed by addition of 50 μl of TMB substrate (Sigma T4444). After incubation for 20 min at room temperature, plates were stopped with TMB stop solution (Sigma S5689) by colorimetric detection at 450 nm wavelength using a Tecan Safire II plate reader.

VLA-4 (a4b1) = VLA-4 (a4b1) (Homo sapiens (Human), UniProt P05556+P13612); experiment: sVCAM flow cytometry cell-based assay (inhibition of soluble VCAM-1 binding to G2 ALL cells);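 further: compounds at 0.1 to 1000 nM preincubated 30 min with G2 ALL cells, then VCAM/Fc added for 30 min, bound VCAM-1 detected by PE secondary antibody, percent binding cells by flow cytometry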
Protocol: VLA-4 (a4b1) inhibitor compounds were tested for their ability to inhibit the binding of soluble VCAM-1 to human G2 acute lymphoblastic leukemia (ALL) cells. Briefly, G2 ALL cells are pre-incubated with increasing concentrations (0.1 to 1000 nM) of compounds for 30 minutes. Soluble VCAM/Fc chimera protein (R & D systems) is then added to the mixture and the cells incubated for an additional 30 minutes. Afterwards, cells are washed and VCAM-1 is detected using a PE-conjugated secondary polyclonal antibody. In each experiment, an aliquot of cells are stained with isotype control antibodies to serve as a negative control. The percentage of VCAM-1 binding cells was then determined by flow cytometry.

[1] = tested on: hematopoietic stem/progenitor cells (HSPCs); experiment: HSPC mobilization into peripheral blood, colony forming unit (CFU) assay; on HSPC mobilization, result in words: test concentration or dose not given here; on No. CFU (×10^3)/mL ± SD, 6 hr: test concentration or dose not given here; conditions: mice; for No. CFU (x10^3)/mL ± SD, 2 hr / No. CFU (x10^3)/mL ± SD, 4 hr / No. CFU (x10^3)/mL ± SD, 6 hr / No. CFU (x10^3)/mL ± SD, 8 hr: single injection; for No. CFU (x10^3)/mL ± SD, 2 hr: 2 hr post dose (TABLE 12); for No. CFU (x10^3)/mL ± SD, 4 hr: 4 hr post dose (TABLE 12); for No. CFU (x10^3)/mL ± SD, 6 hr: 6 hr post dose (TABLE 12); for No. CFU (x10^3)/mL ± SD, 8 hr: 8 hr post dose (TABLE 12)
[2] = as listed in TABLE 12, read-out: sVCAM IC50
[3] = inhibition of sVCAM-1 binding to human G2 ALL cells (TABLE 3), read-out: SVCAM-1, IC50

Sequence of VLA-4 (a4b1) (P13612 34-1032): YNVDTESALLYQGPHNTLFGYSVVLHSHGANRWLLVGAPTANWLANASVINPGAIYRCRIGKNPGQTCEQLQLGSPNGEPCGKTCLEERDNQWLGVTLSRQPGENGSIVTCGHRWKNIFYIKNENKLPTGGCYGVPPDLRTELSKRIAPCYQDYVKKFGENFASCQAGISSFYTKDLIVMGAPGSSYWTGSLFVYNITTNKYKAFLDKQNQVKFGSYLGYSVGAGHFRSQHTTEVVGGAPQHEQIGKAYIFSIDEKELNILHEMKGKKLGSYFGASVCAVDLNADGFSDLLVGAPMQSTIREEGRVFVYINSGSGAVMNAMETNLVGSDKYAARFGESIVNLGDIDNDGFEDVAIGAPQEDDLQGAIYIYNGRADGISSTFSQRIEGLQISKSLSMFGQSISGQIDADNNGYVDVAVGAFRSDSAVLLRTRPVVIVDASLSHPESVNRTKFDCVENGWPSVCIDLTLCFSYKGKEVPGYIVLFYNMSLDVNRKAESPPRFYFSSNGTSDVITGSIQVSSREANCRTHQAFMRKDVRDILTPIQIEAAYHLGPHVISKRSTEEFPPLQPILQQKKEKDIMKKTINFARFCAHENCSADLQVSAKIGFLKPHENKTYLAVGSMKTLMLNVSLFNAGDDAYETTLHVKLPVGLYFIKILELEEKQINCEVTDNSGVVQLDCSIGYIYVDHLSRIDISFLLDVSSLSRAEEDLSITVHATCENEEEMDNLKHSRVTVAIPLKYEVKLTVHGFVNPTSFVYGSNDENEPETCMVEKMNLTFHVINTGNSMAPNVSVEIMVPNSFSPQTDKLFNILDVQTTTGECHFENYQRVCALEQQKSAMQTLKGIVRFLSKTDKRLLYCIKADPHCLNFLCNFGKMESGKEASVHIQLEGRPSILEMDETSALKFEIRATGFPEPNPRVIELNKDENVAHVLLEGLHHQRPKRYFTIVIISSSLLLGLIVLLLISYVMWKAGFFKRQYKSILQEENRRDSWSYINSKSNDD
Sequence of VLA-4 (a4b1) (P05556 21-798): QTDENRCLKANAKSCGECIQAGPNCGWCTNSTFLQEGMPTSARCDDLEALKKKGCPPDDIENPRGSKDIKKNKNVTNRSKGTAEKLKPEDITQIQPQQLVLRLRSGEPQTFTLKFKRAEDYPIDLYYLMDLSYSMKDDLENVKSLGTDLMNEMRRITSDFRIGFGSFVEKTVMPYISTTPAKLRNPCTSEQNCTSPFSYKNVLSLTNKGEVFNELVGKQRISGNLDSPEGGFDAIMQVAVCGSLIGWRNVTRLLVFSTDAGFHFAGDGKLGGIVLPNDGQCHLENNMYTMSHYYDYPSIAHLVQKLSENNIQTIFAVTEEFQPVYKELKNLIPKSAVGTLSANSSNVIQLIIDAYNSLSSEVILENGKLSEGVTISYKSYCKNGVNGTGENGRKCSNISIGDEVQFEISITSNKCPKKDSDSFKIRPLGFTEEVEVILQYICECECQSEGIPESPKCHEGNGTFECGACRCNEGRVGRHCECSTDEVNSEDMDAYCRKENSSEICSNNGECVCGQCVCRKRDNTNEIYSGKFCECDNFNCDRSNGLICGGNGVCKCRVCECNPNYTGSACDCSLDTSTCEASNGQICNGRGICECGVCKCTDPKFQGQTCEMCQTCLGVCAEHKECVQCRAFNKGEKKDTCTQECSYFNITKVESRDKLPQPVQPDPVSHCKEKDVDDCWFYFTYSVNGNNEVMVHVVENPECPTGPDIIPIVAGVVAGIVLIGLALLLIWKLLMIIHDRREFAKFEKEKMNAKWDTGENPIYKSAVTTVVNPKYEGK
Sequence of integrin a4b7 (P13612 34-970): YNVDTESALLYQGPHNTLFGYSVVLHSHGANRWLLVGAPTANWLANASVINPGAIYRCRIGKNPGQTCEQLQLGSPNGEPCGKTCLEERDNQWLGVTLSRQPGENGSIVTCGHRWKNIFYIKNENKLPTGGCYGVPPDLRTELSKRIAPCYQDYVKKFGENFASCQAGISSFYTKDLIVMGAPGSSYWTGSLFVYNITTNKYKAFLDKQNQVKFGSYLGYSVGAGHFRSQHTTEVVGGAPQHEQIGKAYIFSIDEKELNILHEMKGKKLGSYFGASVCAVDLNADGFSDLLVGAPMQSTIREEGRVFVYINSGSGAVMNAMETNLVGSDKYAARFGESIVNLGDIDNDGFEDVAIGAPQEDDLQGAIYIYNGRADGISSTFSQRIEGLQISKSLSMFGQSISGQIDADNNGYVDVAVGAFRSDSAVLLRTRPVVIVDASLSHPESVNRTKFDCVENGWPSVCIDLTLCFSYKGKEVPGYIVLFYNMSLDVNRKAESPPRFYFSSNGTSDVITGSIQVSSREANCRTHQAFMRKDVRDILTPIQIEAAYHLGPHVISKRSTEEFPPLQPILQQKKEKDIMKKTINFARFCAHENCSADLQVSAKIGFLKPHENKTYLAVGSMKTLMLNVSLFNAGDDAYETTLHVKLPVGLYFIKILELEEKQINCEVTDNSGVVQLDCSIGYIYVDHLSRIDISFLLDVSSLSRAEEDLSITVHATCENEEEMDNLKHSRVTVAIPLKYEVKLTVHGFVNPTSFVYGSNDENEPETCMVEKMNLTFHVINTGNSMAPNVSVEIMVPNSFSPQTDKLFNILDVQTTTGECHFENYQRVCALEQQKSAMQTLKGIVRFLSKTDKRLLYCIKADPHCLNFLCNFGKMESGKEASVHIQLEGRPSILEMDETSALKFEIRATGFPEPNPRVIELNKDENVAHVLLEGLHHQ
Sequence of integrin a4b7 (P26010 20-723): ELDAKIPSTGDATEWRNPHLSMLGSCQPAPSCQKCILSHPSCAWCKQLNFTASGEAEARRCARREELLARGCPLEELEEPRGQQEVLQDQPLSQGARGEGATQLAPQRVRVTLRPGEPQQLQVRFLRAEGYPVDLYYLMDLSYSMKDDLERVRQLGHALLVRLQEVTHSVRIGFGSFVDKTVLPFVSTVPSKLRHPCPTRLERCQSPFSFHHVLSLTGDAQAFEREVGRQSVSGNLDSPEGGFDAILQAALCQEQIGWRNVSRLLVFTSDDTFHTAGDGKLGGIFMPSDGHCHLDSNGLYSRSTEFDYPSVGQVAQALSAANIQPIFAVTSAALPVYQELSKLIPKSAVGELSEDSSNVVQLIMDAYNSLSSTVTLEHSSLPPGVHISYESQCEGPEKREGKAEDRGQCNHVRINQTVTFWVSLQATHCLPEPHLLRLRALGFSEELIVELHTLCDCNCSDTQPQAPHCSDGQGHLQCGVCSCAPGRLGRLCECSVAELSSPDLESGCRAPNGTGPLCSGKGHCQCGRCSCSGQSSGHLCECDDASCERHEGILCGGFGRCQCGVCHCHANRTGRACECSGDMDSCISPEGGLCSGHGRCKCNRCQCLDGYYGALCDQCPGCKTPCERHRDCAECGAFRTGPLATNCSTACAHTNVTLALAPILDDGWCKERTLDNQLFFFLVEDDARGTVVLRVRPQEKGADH

COc1cccc(OC)c1-c1ccc(C[C@H](CC(=O)c2c(Cl)cc(C(=O)O)cc2Cl)C(=O)O)cc1 [Example C1]
IC50 (integrin a4b7): 1.1 nM
IC50 (VLA-4 (a4b1); as listed in TABLE 5, read-out: sVCAM IC50): 4.9 nM
IC50 (VLA-4 (a4b1); as listed in TABLE 7, read-out: sVCAM IC50): 4.9 nM
IC50 (VLA-4 (a4b1); [2]): 4.9 nM
IC50 (VLA-4 (a4b1); as listed in TABLE 20, read-out: sVCAM IC50): 4.9 nM
IC50 (VLA-4 (a4b1); [3]): 4.98 nM
time to which HSPC mobilization is extended after a single dose [1]: ≤ 2 h
HSPC mobilization, result in words ([1]; single dose): have returned to baseline
No. CFU (×10^3)/mL ± SD, 0.5 hr ([1]; single dose, peripheral blood, 0.5 hr post dose (TABLE 7)): 0.96 ± 0.33 (×10^3)/mL
No. CFU (×10^3)/mL ± SD, 1 hr ([1]; single dose, peripheral blood, 1 hr post dose (TABLE 20)): 2.16 ± 1.22 (×10^3)/mL
No. CFU (×10^3)/mL ± SD, 2 hr ([1]; single dose, peripheral blood, 2 hr post dose (TABLE 7)): 0.33 ± 0.14 (×10^3)/mL
No. CFU (×10^3)/mL ± SD, 4 hr ([1]; single dose, peripheral blood, 4 hr post dose (TABLE 7)): 0.08 ± 0.04 (×10^3)/mL
No. CFU (×10^3)/mL ± SD, 4 hr ([1]; single dose, peripheral blood, 4 hr post dose (TABLE 20)): 0.26 ± 0.18 (×10^3)/mL
No. CFU (×10^3)/mL ± SD, 8 hr ([1]; single dose, peripheral blood, 8 hr post dose (TABLE 20)): 0.13 ± 0.10 (×10^3)/mL
HSPC mobilization, result in words ([1]; single dose, listed as Comparator Compound 1): returned to baseline by 4 hours
No. CFU (x10^3)/mL ± SD, 2 hr ([1]; peripheral blood): 0.67 ± 0.12 (x10^3)/mL
No. CFU (x10^3)/mL ± SD, 4 hr ([1]; peripheral blood): 0.42 ± 0.14 (x10^3)/mL
No. CFU (x10^3)/mL ± SD, 6 hr ([1]; peripheral blood): 0.26 ± 0.07 (x10^3)/mL
No. CFU (x10^3)/mL ± SD, 8 hr ([1]; peripheral blood): 0.22 ± 0.02 (x10^3)/mL
No. CFU (×10^3)/mL ± SD, 0.25 hr ([1]; single s.c. injection, peripheral blood, 0.25 hr post dose (TABLE 5)): 3.98 ± 1.09 (×10^3)/mL
No. CFU (×10^3)/mL ± SD, 2 hr ([1]; single s.c. injection, peripheral blood, 2 hr post dose (TABLE 5)): 0.86 ± 0.25 (×10^3)/mL
No. CFU (×10^3)/mL ± SD, 4 hr ([1]; single s.c. injection, peripheral blood, 4 hr post dose (TABLE 5)): 0.27 ± 0.20 (×10^3)/mL

COCCOCCOCCOCCOCCOCCOCCOCCOCCOCCOCCOCCOCCOCCOCCOCCOCCOCCOCCOCCOCCOCCOCCOCCOCc1cc(OC)c(-c2ccc(C[C@H](NC(=O)c3c(Cl)cc(C(=O)O)cc3Cl)C(=O)O)cc2)c(OC)c1 [Example C17, (S)-4-((1-carboxy-2-(2′,6′-dimethoxy-4′-(2,5,8,11,14,17,20,23,26,29,32,35,38,41,44,47,50,53,56,59,62,65,68,71,74-pentacosaoxapentaheptacontyl)-[1,1′-biphenyl]-4-yl)ethyl)carbamoyl)-3,5-dichlorobenzoic acid]
IC50 (integrin a4b7): 1.5 nM
IC50 (VLA-4 (a4b1); as listed in TABLE 10, read-out: sVCAM IC50): 1.49 nM
IC50 (VLA-4 (a4b1); [2]): 1.49 nM
IC50 (VLA-4 (a4b1); as listed in TABLE 17, read-out: sVCAM IC50): 1.49 nM
IC50 (VLA-4 (a4b1); [3]): 1.49 nM
HSPC mobilization in the triple combination regimen with plerixafor and truncated Groβ [1]: does not extend mobilization out to 6 hours
time to which HSPC mobilization is extended after a single dose [1]: ≤ 2 h
No. CFU (×10^3)/mL ± SD, 2 hr ([1]; alone or in combination with Plerixafor and tGroβ, peripheral blood, 2 hr (TABLE 17)): 4.77 ± 1.21 (×10^3)/mL
No. CFU (×10^3)/mL ± SD, 4 hr ([1]; alone or in combination with Plerixafor and tGroβ, peripheral blood, 4 hr (TABLE 17)): 0.81 ± 0.26 (×10^3)/mL
No. CFU (×10^3)/mL ± SD, 6 hr ([1]; alone or in combination with Plerixafor and tGroβ, peripheral blood, 6 hr (TABLE 17)): 0.26 ± 0.13 (×10^3)/mL
HSPC mobilization, result in words ([1]; single dose): returning to baseline by 4 hours and no mobilization at 6 hours; also recorded: does not extend mobilization; also recorded: do not provide for extended mobilization
No. CFU (×10^3)/mL ± SD, 2 hr ([1]; single dose, peripheral blood, 2 hr post dose (TABLE 10)): 3.67 ± 1.09 (×10^3)/mL
No. CFU (×10^3)/mL ± SD, 4 hr ([1]; single dose, peripheral blood, 4 hr post dose (TABLE 10)): 0.57 ± 0.21 (×10^3)/mL
No. CFU (×10^3)/mL ± SD, 6 hr ([1]; single dose, peripheral blood, 6 hr post dose (TABLE 10)): 0.28 ± 0.17 (×10^3)/mL
No. CFU (x10^3)/mL ± SD, 2 hr ([1]; peripheral blood): 4.32 ± 1.23 (x10^3)/mL
No. CFU (x10^3)/mL ± SD, 4 hr ([1]; peripheral blood): 1.21 ± 0.40 (x10^3)/mL
No. CFU (x10^3)/mL ± SD, 6 hr ([1]; peripheral blood): 0.26 ± 0.07 (x10^3)/mL
No. CFU (x10^3)/mL ± SD, 8 hr ([1]; peripheral blood): 0.19 ± 0.09 (x10^3)/mL
